Common to all, as to assay: growth of human tumour cells (NCI), 48 h
In assay [1] the test system is IGROV-1.
The test system of assay [2] is MOLT-4.
Assay [3] deals with NCI-H23.
In assay [4] the test system is UACC-62.
In assay [5] the test system is CAKI-1.
Assay [6] has as its system SF-539.
Assay [7] concerns SK-OV-3.
Assay [8] relates to OVCAR-3.
The subject of assay [9] is UO-31.
The subject of assay [10] is Hs-578T.
The subject of assay [11] is SK-MEL-2.
In assay [12] the test system is UACC-257.
Assay [13] concerns HT-29.
For assay [14], the system named is RPMI-8226.
For assay [15], the system named is HCT-116.
The subject of assay [16] is SW-620.
Assay [17] concerns DU-145.
In assay [18] the test system is OVCAR-4.
Assay [19] deals with SF-295.

Molecules are shown by their SMILES.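 Exposure lasted 48 hours, with cells grown in 96-well plates and compounds tested at five concentrations. GI50 marks 50% less growth.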 Activity calls are given as the source filed them. Rule as the data show it: active = GI50 up to about 1.1 µM and inactive = higher.

Regarding `Cc1cc2c(cc1-c1cc3c(cc1C)C(C(C)C)=C(O)C(=O)/C3=C\Nc1c(C)n(C)n(-c3ccccc3)c1=O)/C(=C/Nc1c(C)n(C)n(-c3ccccc3)c1=O)C(=O)C(O)=C2C(C)C`, the GI50 in assay [1] is 51.1 µM (inactive); in assay [2], 41.2 µM (inactive); in assay [3], > 100 µM (inactive); in assay [4], > 100 µM (inactive); in assay [5], > 100 µM (inactive); in [6] it was 48.1 µM (inactive). Moreover, the GI50 in assay [7] was > 100 µM (inactive); in [8], 50.2 µM (inactive); in assay [9], > 100 µM (inactive); in assay [10] it was > 100 µM (inactive); in assay [11], > 100 µM (inactive); in [12], > 100 µM (inactive). Further, the GI50 in assay [13] is > 100 µM (inactive); in [14], 71.9 µM (inactive); in assay [15] it was > 100 µM (inactive); in assay [16], 61.9 µM (inactive); in assay [17], > 100 µM (inactive); in assay [18], > 100 µM (inactive). Besides, in assay [19], the GI50 was > 100 µM (inactive).

Regarding `O=C1C=CC(=O)c2c1ccc1c3ccccc3n(CCCCCCCCCCCCn3c4ccccc4c4ccc5c(c43)C(=O)C=CC5=O)c21`, the GI50 in assay [1] was > 100 µM (inactive); in assay [2], 49.9 µM (inactive); in [3] it was > 100 µM (inactive); in assay [4] it was > 100 µM (inactive); in assay [5], > 100 µM (inactive); in [6], > 100 µM (inactive). Further, the GI50 in assay [7], in [8], in assay [9], in assay [10], in [11] and in assay [12] was > 100 µM (inactive) each time. The GI50 in assay [13], in assay [14], in assay [15], in assay [16], in assay [17] and in [18] was > 100 µM (inactive) each time. In addition, in assay [19], the GI50 was > 100 µM (inactive).

Take `C#CCn1c(=O)ccn(/C(=C\C(=O)OCC)C(=O)OCC)c1=O`: the GI50 was 9.08 µM (inactive) in assay [1]; 2.56 µM (inactive) in assay [2]; 14.9 µM (inactive) in assay [3]; 14.2 µM (inactive) in [4]; 1.03 µM (active) in [5]; 1.86 µM (inactive) in [6]. For the same compound, the GI50 was 33 µM (inactive) in assay [7]; 5.61 µM (inactive) in [8]; 13.5 µM (inactive) in assay [9]; 27.7 µM (inactive) in assay [10]; 16.4 µM (inactive) in assay [11]; 15.3 µM (inactive) in [12]. In addition, the GI50 in [13] is 2.04 µM (inactive); in assay [14], 2.73 µM (inactive); in [15], 5.53 µM (inactive); in [16], 1.68 µM (inactive); in assay [17] it was 15.6 µM (inactive); in assay [18], 2.85 µM (inactive). Further, in [19], the GI50 was 22.9 µM (inactive).

With `Cc1cc2c(s1)C(=O)c1sccc1C2=O`, the GI50 in [1] is 1.66 µM (inactive); in assay [2], 2.3 µM (inactive); in assay [3], 0.171 µM (active); in assay [4], 0.24 µM (active); in assay [5], 1.75 µM (inactive); in assay [6] it was 0.248 µM (active). Also, the GI50 is 2.06 µM (inactive) in [7]; 0.83 µM (active) in assay [8]; 0.805 µM (active) in assay [9]; 0.417 µM (active) in assay [10]; 0.385 µM (active) in assay [11]; 0.194 µM (active) in [12]. Moreover, the GI50 in [13] is 2.04 µM (inactive); in assay [14], 1.88 µM (inactive); in assay [15] it was 0.998 µM (active); in [16] it was 0.275 µM (active); in [17] it was 1.83 µM (inactive); in assay [18] it was 0.561 µM (active). In addition, the GI50 in assay [19] is 0.344 µM (active).

For the compound `CC(=O)OCC1OC(n2c(-c3cccs3)c3c(c(C#N)c2=S)-c2ccccc2CC3)C(OC(C)=O)C(OC(C)=O)C1OC(C)=O` (stereo not given), the GI50 in assay [1] was 9.04 µM (inactive); in assay [2], 4.48 µM (inactive); in [3] it was 19.5 µM (inactive); in assay [4], 4.17 µM (inactive); in [5], 9.59 µM (inactive); in [6], 9.57 µM (inactive). Besides, the GI50 was 20.2 µM (inactive) in assay [7]; 10.4 µM (inactive) in assay [8]; 2.97 µM (inactive) in assay [9]; 7.52 µM (inactive) in [10]; 5.48 µM (inactive) in [11]; 12.8 µM (inactive) in [12]. For the same compound, the GI50 was 5.31 µM (inactive) in assay [13]; 3.28 µM (inactive) in assay [14]; 7.67 µM (inactive) in assay [15]; 15.5 µM (inactive) in assay [16]; 23.9 µM (inactive) in assay [17]; 5.32 µM (inactive) in [18]. The GI50 in assay [19] was 13.7 µM (inactive).

As for `CC(=O)c1c2c(c3ccccc3c1O)O[C@@H]1OCC[C@H]21`, the GI50 in [1], in assay [2], in assay [3], in assay [4], in assay [5] and in assay [6] was > 100 µM (inactive) in each case. The GI50 in assay [7], in assay [8], in assay [9], in assay [10], in assay [11] and in [12] was > 100 µM (inactive) throughout. Further, the GI50 in assay [13] was > 100 µM (inactive); in assay [14], 94.6 µM (inactive); in assay [15], > 100 µM (inactive); in [16] it was > 100 µM (inactive); in assay [17] it was > 100 µM (inactive); in [18], 53.3 µM (inactive). In [19], the GI50 was > 100 µM (inactive).

As to `COC1(OC)CCCc2c1no[n+]2[O-]`, the GI50 in [1], in [2], in assay [3], in assay [4], in assay [5] and in assay [6] was > 100 µM (inactive) throughout. Besides, the GI50 in assay [7], in [8], in assay [9], in assay [10], in assay [11] and in assay [12] was > 100 µM (inactive) in each case. The GI50 in assay [13], in assay [14], in assay [15], in assay [16], in [17] and in [18] was > 100 µM (inactive) throughout. In addition, the GI50 in assay [19] was > 100 µM (inactive).

Take `C=C(C)[C@H]1[C@@H]2OC(=O)[C@H]1[C@]1(O)C[C@H]3OC34C(=O)O[C@H]2[C@@]41C.CC(C)(O)[C@H]1[C@@H]2OC(=O)[C@H]1[C@]1(O)C[C@H]3OC34C(=O)O[C@H]2[C@@]41C` (stereo not given in full): the GI50 in assay [1], in assay [2], in assay [3], in assay [4], in assay [5] and in assay [6] was > 100 µM (inactive) in each case. The GI50 in [7], in [8], in assay [9], in [10], in [11] and in assay [12] was > 100 µM (inactive) in each case. Besides, the GI50 in assay [13], in assay [14], in assay [15], in [16], in assay [17] and in assay [18] was > 100 µM (inactive) each time. Moreover, in assay [19], the GI50 is > 100 µM (inactive).

For the compound `CCN(CC)CCNc1ccc2ncn3c4cc(OC)c(OC)c(O)c4c(=O)c1c23`, the GI50 in [1] is 12.5 µM (inactive); in assay [2] it was 0.524 µM (active); in assay [3], 2.69 µM (inactive); in assay [4], 16.6 µM (inactive); in assay [5] it was 14 µM (inactive); in assay [6] it was 9.06 µM (inactive). The GI50 is 12.5 µM (inactive) in assay [7]; 13 µM (inactive) in [8]; 12.3 µM (inactive) in assay [9]; 13.2 µM (inactive) in assay [10]; 20.4 µM (inactive) in assay [11]; 22.9 µM (inactive) in [12]. The GI50 in assay [13] was 3.8 µM (inactive); in assay [14], 3.03 µM (inactive); in assay [15], 0.556 µM (active); in assay [16], 1.4 µM (inactive); in [17], 10.2 µM (inactive); in [18], 4.9 µM (inactive). Also, in assay [19], the GI50 was 10.4 µM (inactive).

In the case of `O=[N+]([O-])c1cccc(-c2csc(N/N=C3\NC/C(=C/c4ccc5c(c4)OCO5)S3)n2)c1`, the GI50 in assay [1] was 21 µM (inactive); in assay [2], 34.4 µM (inactive); in assay [3] it was 20.1 µM (inactive); in assay [4], 18.8 µM (inactive); in assay [5] it was 38.4 µM (inactive); in assay [6], 40.8 µM (inactive). The GI50 in assay [7] was 26.8 µM (inactive); in assay [8], 30.3 µM (inactive); in assay [9], 25.9 µM (inactive); in [10], 24.2 µM (inactive); in assay [11], 22.1 µM (inactive); in [12], 35.9 µM (inactive). The GI50 in assay [13] is 22.4 µM (inactive); in [14], 37.7 µM (inactive); in assay [15], 30.6 µM (inactive); in assay [16], 34 µM (inactive); in [17] it was 33.8 µM (inactive); in assay [18] it was 27.9 µM (inactive). Further, in assay [19], the GI50 is 35 µM (inactive).

The values above are taken from ChEMBL document CHEMBL1201862, “PubChem BioAssay data set” (2004).
